Assay: Pharmacokinetic evaluation: plasma concentration in rats
Assay type: in vivo, Male SD rats
Details: plasma, rat; for AUC: trapezoidal rule; for concentration at 0.5 h: 1/2 h; for concentration at 0.25 h: 1/4 h; for concentration at 5 min: 1/12 h
Description: (4) Pharmacokinetic evaluations
Male SD rats ([…]) were divided into groups each consisting of three animals. […] Furthermore, cilastatin was intravenously administered to a 14th group as a control group.
Plasma samples were taken periodically from the carotid artery through a cannula inserted into it at the points of 1/12, 1/4, 1/2, 1, 2, 4, 6, 8 and 24 hours after the administration.
The area under the curve (AUC) of the plasma concentration was determined according to the trapezoidal rule.

[1] = iv 10 mg/kg (cilastatin dose not given)

CC(C)CP(=O)(O)C/C(=C\C1CCCCC1)C(=O)O [Compound No. 2, (Z)-3-cyclohexyl-2-(hydroxyisobutylphosphinoyl)methylpropenoic acid]
AUC [1]: 162000 ng·h/mL
AUC (po 10 mg/kg): 24300 ng·h/mL
concentration at 0.5 h [1]: 53700 ng/mL
concentration at 0.25 h [1]: 60700 ng/mL
concentration at 5 min [1]: 84900 ng/mL
concentration at 1 h (iv 10 mg/kg (cilastatin dose not given), N.D.: below the detection limit): 42400 ng/mL
concentration at 2 h (iv 10 mg/kg): 21800 ng/mL
concentration at 4 h (iv 10 mg/kg): 10500 ng/mL
concentration at 6 h (iv 10 mg/kg, N.D.: below the detection limit): 5400 ng/mL
concentration at 8 h (iv 10 mg/kg): 2500 ng/mL
concentration at 0.5 h (po 10 mg/kg): 6800 ng/mL
concentration at 0.25 h (po 10 mg/kg): 6600 ng/mL
concentration at 5 min (po 10 mg/kg): 3300 ng/mL
concentration at 1 h (po 10 mg/kg): 5400 ng/mL
concentration at 2 h (po 10 mg/kg): 3800 ng/mL
concentration at 4 h (po 10 mg/kg): 2100 ng/mL
concentration at 6 h (po 10 mg/kg): 1200 ng/mL
concentration at 8 h (po 10 mg/kg, N.D.: below the detection limit): 400 ng/mL

— patent US4988681A, “Phosphinic acid derivatives” (Banyu Pharmaceutical Co., Ltd., priority 1988, dated 1991)
